Test results taken from ChEMBL document CHEMBL6177992, “A First-in-Class Hepatocyte Nuclear Factor 4 Agonist” (J Med Chem, 2025).

Key:
[1] = biological target: T1, CAR (nuclear receptor subfamily 1 group I member 3) (Homo sapiens, UniProt Q14994); assay: Agonist activity at human Gal4-CARalpha-LBD expressed in HEK293T cells transfected with pFR-Luc/pRLSV40 assessed as relative luminescence at 1 uM measured after 14 to 16 hrs by hybrid reporter gene assay; type: cell-based; settings: time 14-16 hrs, read-out: Activity
T1 sequence (Q14994 whole entry): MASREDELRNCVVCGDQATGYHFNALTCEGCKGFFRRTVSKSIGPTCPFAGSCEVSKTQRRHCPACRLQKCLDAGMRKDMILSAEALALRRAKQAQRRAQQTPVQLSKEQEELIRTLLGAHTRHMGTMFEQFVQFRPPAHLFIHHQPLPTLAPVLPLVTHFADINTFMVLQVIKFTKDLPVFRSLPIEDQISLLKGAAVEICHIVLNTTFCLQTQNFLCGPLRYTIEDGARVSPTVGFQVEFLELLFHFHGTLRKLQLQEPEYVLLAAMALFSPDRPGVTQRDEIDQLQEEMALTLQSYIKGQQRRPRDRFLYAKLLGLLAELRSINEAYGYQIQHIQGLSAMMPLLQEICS

[2] = biological target: T2, Nuclear receptor subfamily 1 group I member 2 (Homo sapiens, UniProt O75469); assay: Agonist activity at human Gal4-PXR-LBD expressed in HEK293T cells transfected with pFR-Luc/pRLSV40 assessed as relative luminescence at 1 uM measured after 14 to 16 hrs by hybrid reporter gene assay; type: cell-based; settings: time 14-16 hrs
T2 sequence (O75469 whole entry): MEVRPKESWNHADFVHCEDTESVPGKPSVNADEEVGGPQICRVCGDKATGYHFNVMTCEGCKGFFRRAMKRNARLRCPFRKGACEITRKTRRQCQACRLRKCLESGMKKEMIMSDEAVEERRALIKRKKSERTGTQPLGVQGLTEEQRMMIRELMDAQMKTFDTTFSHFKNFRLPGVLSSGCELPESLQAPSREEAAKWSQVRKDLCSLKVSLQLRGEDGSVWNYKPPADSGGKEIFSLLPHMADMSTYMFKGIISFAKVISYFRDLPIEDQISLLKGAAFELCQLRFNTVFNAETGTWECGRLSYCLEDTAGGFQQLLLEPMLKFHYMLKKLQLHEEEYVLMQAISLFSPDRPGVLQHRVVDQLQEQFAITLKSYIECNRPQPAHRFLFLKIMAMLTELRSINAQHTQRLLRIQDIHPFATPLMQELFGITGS

With `Cc1ccc(C#Cc2ccc(O)c(C(=O)O)c2)c(Cl)c1` the activity at 1 µM [1] was less than 20% and the Activity [2] was less than 20%.
